# Assay results: US7786141B2 (Vertex Pharmaceuticals Incorporated, priority 2004, dated 2010)
# Tests used:
# M4 muscarinic receptor = biological target: T1, M4 muscarinic receptor (Homo sapiens, UniProt P08173); assay: Functional mobilization of intracellular calcium (FLIPR) in M4-CHO cells; assay type: cell-based; conditions: Table 4; for Emax: 100% efficacy is the maximum response obtained with the Carbachol control; for M4 Activity: M4 receptor, calcium mobilization (FLIPR)
# T1 construct: expressed in transfected cells; host or cells: CHO (M4-CHO)
# T1 sequence (P08173 1-479): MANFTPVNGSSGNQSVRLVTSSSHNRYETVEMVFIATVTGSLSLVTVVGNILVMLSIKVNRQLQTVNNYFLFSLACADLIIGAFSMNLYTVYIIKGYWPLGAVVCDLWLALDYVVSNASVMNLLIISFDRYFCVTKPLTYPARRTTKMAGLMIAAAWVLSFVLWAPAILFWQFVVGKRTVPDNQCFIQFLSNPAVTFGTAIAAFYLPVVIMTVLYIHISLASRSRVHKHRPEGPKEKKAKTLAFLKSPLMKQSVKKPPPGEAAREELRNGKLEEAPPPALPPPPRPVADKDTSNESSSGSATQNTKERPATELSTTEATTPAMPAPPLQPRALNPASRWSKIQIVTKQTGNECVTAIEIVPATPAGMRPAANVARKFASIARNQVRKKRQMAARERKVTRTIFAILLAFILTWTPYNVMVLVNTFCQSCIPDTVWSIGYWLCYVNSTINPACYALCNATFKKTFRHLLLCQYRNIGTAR
# Procedure, shortened: (§1)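 Measured via Fluo-3 fluorescence on a FLIPR, CHO cells with either muscarinic subtype received compound in 0.5% DMSO. Antagonism was assessed after 15 min pre-incubation followed by carbachol at each subtype's EC80; agonism from compound addition alone.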
# M1 muscarinic receptor = biological target: T2, M1 muscarinic receptor (Homo sapiens, UniProt P11229); assay: Functional mobilization of intracellular calcium (FLIPR) in M1-CHO cells; assay type: cell-based; conditions: Table 4; for Emax: 100% efficacy is the maximum response obtained with the Carbachol control; for M1 Activity: M1 receptor, calcium mobilization (FLIPR)
# T2 construct: expressed in transfected cells; host or cells: CHO (M1-CHO)
# T2 sequence (P11229 1-460): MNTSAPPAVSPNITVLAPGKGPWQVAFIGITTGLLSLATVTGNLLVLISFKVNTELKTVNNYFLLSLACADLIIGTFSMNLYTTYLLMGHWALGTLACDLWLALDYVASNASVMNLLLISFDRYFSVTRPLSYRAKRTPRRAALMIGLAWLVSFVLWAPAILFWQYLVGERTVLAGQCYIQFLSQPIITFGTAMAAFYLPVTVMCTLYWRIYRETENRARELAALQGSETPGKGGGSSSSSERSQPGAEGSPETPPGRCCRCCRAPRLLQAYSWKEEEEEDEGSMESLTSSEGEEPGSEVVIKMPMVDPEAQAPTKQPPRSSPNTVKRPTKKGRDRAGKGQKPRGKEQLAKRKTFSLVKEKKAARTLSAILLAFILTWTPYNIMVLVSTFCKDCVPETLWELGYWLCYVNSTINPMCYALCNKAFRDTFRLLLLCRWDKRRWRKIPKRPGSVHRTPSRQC
# Procedure, shortened: as §1
structure (smiles),measurement,setting,value
CN(C)C(=O)N1CC2(CCN(C3CCN(C(=O)OCC(F)(F)F)CC3)CC2)c2cc(F)ccc21 [compound 938],Emax,M4 muscarinic receptor,25 to 100%
same,M4 Activity,M4 muscarinic receptor,xxx (activity was measured to be less than 2.0 μM)
same,Emax,M1 muscarinic receptor,25 to 100%
same,M1 Activity,M1 muscarinic receptor,xxx (activity was measured to be less than 2.0 μM)
CC#CCOC(=O)N1CC[C@@H](CN2CCC3(CC2)CN(C(=O)N(C)C)c2ccc(F)cc23)C1 [compound 939],Emax,M4 muscarinic receptor,25 to 100%
same,M4 Activity,M4 muscarinic receptor,xxx (activity was measured to be less than 2.0 μM)
same,Emax,M1 muscarinic receptor,25 to 100%
same,M1 Activity,M1 muscarinic receptor,xxx (activity was measured to be less than 2.0 μM)
CCOC(=O)N1CC[C@H](CN2CCC3(CC2)CN(C(C)=O)c2cccc(C)c23)C1 [compound 940],Emax,M4 muscarinic receptor,25 to 100%
same,M4 Activity,M4 muscarinic receptor,xxx (activity was measured to be less than 2.0 μM)
same,Emax,M1 muscarinic receptor,25 to 100%
same,M1 Activity,M1 muscarinic receptor,xxx (activity was measured to be less than 2.0 μM)
CCOC(=O)N1CCC(N2CCC3(CC2)CN(c2cccnc2)c2ccc(F)cc23)CC1 [compound 941],Emax,M4 muscarinic receptor,25 to 100%
same,M4 Activity,M4 muscarinic receptor,xxx (activity was measured to be less than 2.0 μM)
same,Emax,M1 muscarinic receptor,25 to 100%
same,M1 Activity,M1 muscarinic receptor,xxx (activity was measured to be less than 2.0 μM)
CCOC(=O)N1CCC(N2CCC3(CC2)CN(c2ccc(C)nn2)c2ccc(F)cc23)CC1 [compound 942],Emax,M4 muscarinic receptor,25 to 100%
same,M4 Activity,M4 muscarinic receptor,xxx (activity was measured to be less than 2.0 μM)
same,Emax,M1 muscarinic receptor,> 100%
same,M1 Activity,M1 muscarinic receptor,xxx (activity was measured to be less than 2.0 μM)
CC(=O)N1CC2(CCN(C3CCN(c4nc(C)ns4)CC3)CC2)c2cc(F)ccc21 [compound 943],Emax,M4 muscarinic receptor,25 to 100%
same,M4 Activity,M4 muscarinic receptor,xxx (activity was measured to be less than 2.0 μM)
same,Emax,M1 muscarinic receptor,25 to 100%
same,M1 Activity,M1 muscarinic receptor,xxx (activity was measured to be less than 2.0 μM)
CCNC(=O)N1CC2(CCN(C3CCN(C(=O)OCC)CC3)CC2)c2ccccc21 [compound 944],Emax,M4 muscarinic receptor,25 to 100%
same,M4 Activity,M4 muscarinic receptor,xxx (activity was measured to be less than 2.0 μM)
same,Emax,M1 muscarinic receptor,25 to 100%
same,M1 Activity,M1 muscarinic receptor,xxx (activity was measured to be less than 2.0 μM)
O=C1CCCN1[C@H]1CCC2(CCN(C3CCCCCC3)CC2)c2ccccc21 [compound 945],Emax,M4 muscarinic receptor,25 to 100%
same,M4 Activity,M4 muscarinic receptor,xxx (activity was measured to be less than 2.0 μM)
same,Emax,M1 muscarinic receptor,25 to 100%
same,M1 Activity,M1 muscarinic receptor,xxx (activity was measured to be less than 2.0 μM)
O=C(N[C@H]1CC2(CCN(CC3CCCCC3)CC2)c2ccccc21)N1CCCC1 [compound 946],Emax,M4 muscarinic receptor,< 25%
same,M4 Activity,M4 muscarinic receptor,xxx (activity was measured to be less than 2.0 μM)
same,Emax,M1 muscarinic receptor,< 25%
same,M1 Activity,M1 muscarinic receptor,x (activity was measured to be greater than 5.0 μM)
C#CCOC(=O)N1CCC(N2CCC3(CC2)CN(C(C)=O)c2ccccc23)CC1 [compound 947],Emax,M4 muscarinic receptor,25 to 100%
same,M4 Activity,M4 muscarinic receptor,xxx (activity was measured to be less than 2.0 μM)
same,Emax,M1 muscarinic receptor,> 100%
same,M1 Activity,M1 muscarinic receptor,xxx (activity was measured to be less than 2.0 μM)
CCOC(=O)N1CCC(CN2CCC3(CC2)CN(C(C)=O)c2ccc(S(C)(=O)=O)cc23)CC1 [compound 948],Emax,M4 muscarinic receptor,< 25%
same,M4 Activity,M4 muscarinic receptor,x (activity was measured to be greater than 5.0 μM)
same,Emax,M1 muscarinic receptor,< 25%
same,M1 Activity,M1 muscarinic receptor,x (activity was measured to be greater than 5.0 μM)
CCOC(=O)N1C2CCC1CC(N1CCC3(CC1)CC(=O)c1cc(C)ccc13)C2 (stereo not shown) [compound 949],Emax,M4 muscarinic receptor,25 to 100%
same,M4 Activity,M4 muscarinic receptor,xxx (activity was measured to be less than 2.0 μM)
same,Emax,M1 muscarinic receptor,25 to 100%
same,M1 Activity,M1 muscarinic receptor,xxx (activity was measured to be less than 2.0 μM)
CCOC(=O)N1CCC(N2CCC3(CC2)CN(C(C)=O)c2ccc(-c4ccc(F)cc4)cc23)CC1 [compound 950],Emax,M4 muscarinic receptor,25 to 100%
same,M4 Activity,M4 muscarinic receptor,xx (activity was measured to be between 2.0 μM and 5.0 μM)
same,Emax,M1 muscarinic receptor,25 to 100%
same,M1 Activity,M1 muscarinic receptor,xx (activity was measured to be between 2.0 μM and 5.0 μM)
CCOC(=O)N1CCC(N2CCC3(CC2)CN(C2CCC(=O)CC2)c2ccc(F)cc23)CC1 [compound 951],Emax,M4 muscarinic receptor,25 to 100%
same,M4 Activity,M4 muscarinic receptor,xxx (activity was measured to be less than 2.0 μM)
same,Emax,M1 muscarinic receptor,25 to 100%
same,M1 Activity,M1 muscarinic receptor,xxx (activity was measured to be less than 2.0 μM)
CCOC(=O)N1CCC(N2CCC3(CC2)CNc2ccc(F)cc23)CC1 [compound 952],Emax,M4 muscarinic receptor,25 to 100%
same,M4 Activity,M4 muscarinic receptor,xxx (activity was measured to be less than 2.0 μM)
same,Emax,M1 muscarinic receptor,25 to 100%
same,M1 Activity,M1 muscarinic receptor,xxx (activity was measured to be less than 2.0 μM)
CC(=O)N1CC2(CCN(C3CCN(c4cnc(C)c(C)n4)CC3)CC2)c2ccccc21 [compound 953],Emax,M4 muscarinic receptor,25 to 100%
same,M4 Activity,M4 muscarinic receptor,xxx (activity was measured to be less than 2.0 μM)
same,Emax,M1 muscarinic receptor,25 to 100%
same,M1 Activity,M1 muscarinic receptor,xx (activity was measured to be between 2.0 μM and 5.0 μM)
COCCOC(=O)N1CCCC(N2CCC3(CC2)CN(C(=O)N(C)C)c2ccc(F)cc23)CC1 (stereo not shown) [compound 954],Emax,M4 muscarinic receptor,25 to 100%
same,M4 Activity,M4 muscarinic receptor,xxx (activity was measured to be less than 2.0 μM)
same,Emax,M1 muscarinic receptor,25 to 100%
same,M1 Activity,M1 muscarinic receptor,xxx (activity was measured to be less than 2.0 μM)
O=C(N[C@H]1CC2(CCN(CC3CCCCC3)CC2)c2ccccc21)C1CC1 [compound 955],Emax,M4 muscarinic receptor,25 to 100%
same,M4 Activity,M4 muscarinic receptor,xxx (activity was measured to be less than 2.0 μM)
same,Emax,M1 muscarinic receptor,25 to 100%
same,M1 Activity,M1 muscarinic receptor,xxx (activity was measured to be less than 2.0 μM)
CCOC(=O)N1CCC(N2CCC3(CC2)CN(C(C)=O)c2c(-c4ccsc4)cccc23)CC1 [compound 956],Emax,M4 muscarinic receptor,< 25%
same,M4 Activity,M4 muscarinic receptor,x (activity was measured to be greater than 5.0 μM)
same,Emax,M1 muscarinic receptor,25 to 100%
same,M1 Activity,M1 muscarinic receptor,x (activity was measured to be greater than 5.0 μM)
CN(C)C(=O)N1CC2(CCN(C3CCN(c4nccs4)CC3)CC2)c2cc(F)ccc21 [compound 957],Emax,M4 muscarinic receptor,25 to 100%
same,M4 Activity,M4 muscarinic receptor,xxx (activity was measured to be less than 2.0 μM)
same,Emax,M1 muscarinic receptor,25 to 100%
same,M1 Activity,M1 muscarinic receptor,xxx (activity was measured to be less than 2.0 μM)
COCCN1CC2(CCN(C3CCCCCC3)CC2)c2cc(F)ccc21 [compound 958],Emax,M4 muscarinic receptor,25 to 100%
same,M4 Activity,M4 muscarinic receptor,xxx (activity was measured to be less than 2.0 μM)
same,Emax,M1 muscarinic receptor,25 to 100%
same,M1 Activity,M1 muscarinic receptor,xxx (activity was measured to be less than 2.0 μM)
CCOC(=O)N1CCC(N2CCC3(CC2)CN(C(=O)N2CCCC2)c2ccccc23)CC1 [compound 959],Emax,M4 muscarinic receptor,25 to 100%
same,M4 Activity,M4 muscarinic receptor,xxx (activity was measured to be less than 2.0 μM)
same,Emax,M1 muscarinic receptor,25 to 100%
same,M1 Activity,M1 muscarinic receptor,xx (activity was measured to be between 2.0 μM and 5.0 μM)
CC(C)N(C(=O)N[C@H]1CC2(CCN(C3CC4CC[C@@H]3C4)CC2)c2ccccc21)C(C)C (stereo partly shown) [compound 960],Emax,M4 muscarinic receptor,25 to 100%
same,M4 Activity,M4 muscarinic receptor,xx (activity was measured to be between 2.0 μM and 5.0 μM)
same,Emax,M1 muscarinic receptor,< 25%
same,M1 Activity,M1 muscarinic receptor,x (activity was measured to be greater than 5.0 μM)
CCOC(=O)N1CCC(N2CCC3(CC[C@H](NC(=O)N(C)C)c4ccccc43)CC2)CC1 [compound 961],Emax,M4 muscarinic receptor,25 to 100%
same,M4 Activity,M4 muscarinic receptor,xxx (activity was measured to be less than 2.0 μM)
same,Emax,M1 muscarinic receptor,25 to 100%
same,M1 Activity,M1 muscarinic receptor,xxx (activity was measured to be less than 2.0 μM)
CC(=O)NC1CCC2(CCN(CCC3CCN(C(=O)OCC(C)C)CC3)CC2)c2ccccc21 (stereo not shown) [compound 962],Emax,M4 muscarinic receptor,< 25%
same,M4 Activity,M4 muscarinic receptor,x (activity was measured to be greater than 5.0 μM)
same,Emax,M1 muscarinic receptor,< 25%
same,M1 Activity,M1 muscarinic receptor,x (activity was measured to be greater than 5.0 μM)
CN(C)C(=O)N1CC2(CCN(C3CCN(c4ncnc5ccsc45)CC3)CC2)c2cc(F)ccc21 [compound 965],Emax,M4 muscarinic receptor,25 to 100%
same,M4 Activity,M4 muscarinic receptor,xxx (activity was measured to be less than 2.0 μM)
same,Emax,M1 muscarinic receptor,25 to 100%
same,M1 Activity,M1 muscarinic receptor,x (activity was measured to be greater than 5.0 μM)
CC(=O)NC1CCC2(CCN(CCC3CCN(C(=O)C(C)(C)C)CC3)CC2)c2ccccc21 (stereo not shown) [compound 966],Emax,M4 muscarinic receptor,< 25%
same,M4 Activity,M4 muscarinic receptor,x (activity was measured to be greater than 5.0 μM)
same,Emax,M1 muscarinic receptor,25 to 100%
same,M1 Activity,M1 muscarinic receptor,xxx (activity was measured to be less than 2.0 μM)
CCc1nccnc1N1CCC(N2CCC3(CC2)CN(C(=O)N(C)C)c2ccc(F)cc23)CC1 [compound 967],Emax,M4 muscarinic receptor,25 to 100%
same,M4 Activity,M4 muscarinic receptor,xx (activity was measured to be between 2.0 μM and 5.0 μM)
same,Emax,M1 muscarinic receptor,25 to 100%
same,M1 Activity,M1 muscarinic receptor,xx (activity was measured to be between 2.0 μM and 5.0 μM)
